{"source": "patent US20250032568A1", "about": "“TRADITIONAL CHINESE MEDICINE COMPOSITION AND TRADITIONAL CHINESE MEDICINE DECOCTION FOR TREATING GASTROESOPHAGEAL REFLUX DISEASE (GERD), AND PREPARATION METHOD AND USE THEREOF” (AFFILIATED HOSPITAL OF JIANGXI UNIVERSITY OF TRADITIONAL …, priority 2023, published 2025)", "type_in_all_cases": "in vivo, human", "key": {"[1]": {"system": "gastroesophageal reflux disease (GERD)", "assay": "Reflux Disease Questionnaire (RDQ) score in GERD patients", "details": "40 per group, mean ± S", "description": "(§1) In this example, 80 patients who were diagnosed with GERD in the inpatient and outpatient departments of the Gastroenterology Department of the Affiliated Hospital of Jiangxi University of Traditional Chinese Medicine from 2022.6.1 to 2023.2-28 and met this standard were collected, with a total effective rate of 87.5%.\n(§2) Treatment group: 100 mL Bid of the traditional Chinese medicine decoction prepared in Example 1\n(§3) Control group: 20 mg Bid of an esomeprazole magnesium soluble capsule\n1) Reflux Disease Questionnaire (RDQ)\nRDQ is currently the most recognized and widely used diagnostic scale for GERD in the world.\nThe maximum score for frequency and symptom severity is 40 points, and the GERD is diagnosed when the RDQ score is >12 points.\nRDQ scoring criteria: a. Scoring based on the frequency of symptom onset: based on the weekly frequency of four symptoms: heartburn, regurgitation, non-cardiac chest pain, and acid reflux, “never”, “1 week <1 d”, “1 d per 1 week”, “2-3 d per 1 week”, “4-5 d per 1 week”, and “almost every day” were scored as 0, 1, 2, 3, 4, and 5 points, respectively, with a maximum of 20 points. b. […]"}, "[2]": {"system": "gastroesophageal reflux disease (GERD)", "assay": "TCM symptom scoring in GERD patients", "details": "40 per group, mean ± S", "description": "as §1, §2, §3\n3) TCM symptom scoring: referring to the “Guiding Principles for Clinical Research of New Traditional Chinese Medicines” for scoring. The scoring criteria are as follows: primary symptoms including acid reflux, heartburn, belching and reflux; the secondary symptoms including retrosternal burning pain, throat discomfort, bitter mouth, nausea. There are 4 levels according to none, mild, moderate, and severe. The primary symptoms are recorded as 0, 2, 4 and 6 points, respectively, while the secondary symptoms are recorded as 0, 1, 2 and 3 points, respectively."}, "[3]": {"system": "gastroesophageal reflux disease (GERD)", "assay": "Clinical efficacy (total effective rate) in GERD patients", "details": "40 per group; for Efficacy (total effective rate): (Recovery+Significant effect+Effective)/total number of cases", "description": "as §1, §2, §3"}, "[4]": {"details": "decoction 100 mL Bid or esomeprazole capsule 20 mg Bid, after the test"}}}
{"compound": "COc1ccc2[n-]c([S+]([O-])Cc3ncc(C)c(OC)c3C)nc2c1.COc1ccc2[n-]c([S+]([O-])Cc3ncc(C)c(OC)c3C)nc2c1.[Mg+2]", "note": "(stereo not drawn) [esomeprazole magnesium soluble capsule, esomeprazole magnesium]", "values": [{"measurement": "RDQ score after treatment", "setting": "[1]", "result": "13.73 ± 4.59^[4]"}, {"measurement": "TCM symptom score after treatment", "setting": "[2]; after treatment", "result": "8.43 ± 4.29^[4]"}, {"measurement": "TCM symptom score before treatment", "setting": "[2]; baseline", "result": "17.85 ± 4.07^[2]"}, {"measurement": "Efficacy (total effective rate)", "setting": "[3]; listed as Control", "result": 82.50, "unit": "%"}, {"measurement": "Efficacy (total effective rate)", "setting": "[3]; listed as control group", "result": 82.5, "unit": "%"}, {"measurement": "Effective (number of patients)", "setting": "[3]; [4]", "result": 23}, {"measurement": "Invalid (number of patients)", "setting": "[3]; [4]", "result": 7}, {"measurement": "Recovery (number of patients)", "setting": "[3]; [4]", "result": 4}, {"measurement": "Significant effect (number of patients)", "setting": "[3]; [4]", "result": 6}]}
